According to PubChem BioAssay AID2060609 (Molecular Pharmacology Branch, DTP, NCI, 2025):

Tested on: 855422-203-R-J1-PDC complex spheroids, viability
Experiment: Anticancer human tumor 855422-203-R-J1-PDC patient-derived bladder carcinoma cell line growth inhibition [CLK]
Conditions: for IC50: curve of first compound; for viability, T/C: stronger effect = lower value; active = viability on the fitted dose curve at most 10% of control; inactive = the rest
How it was run: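 Patient-derived tumor cells grown as complex spheroids with HUVEC endothelial cells and mesenchymal stem cells, treated with drug combinations. Concentrations descend in half-log steps from near clinical Cmax, or from 10 microM if Cmax unknown.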

[1] = second compound 0.0316 µM, first compound 0.0316 µM
[2] = second compound 0.0316 µM, first compound 0.1 µM
[3] = second compound 0.0316 µM, first compound 0.316 µM
[4] = second compound 0.0316 µM, first compound 1 µM
[5] = second compound 0.0316 µM, first compound 3.16 µM
[6] = second compound 0.0316 µM, first compound 10 µM
[7] = second compound 0.1 µM, first compound 0.0316 µM
[8] = second compound 0.1 µM, first compound 0.1 µM
[9] = second compound 0.1 µM, first compound 0.316 µM
[10] = second compound 0.1 µM, first compound 1 µM
[11] = second compound 0.1 µM, first compound 3.16 µM
[12] = second compound 0.1 µM, first compound 10 µM
[13] = second compound 0.316 µM, first compound 0.0316 µM
[14] = second compound 0.316 µM, first compound 0.1 µM
[15] = second compound 0.316 µM, first compound 0.316 µM
[16] = second compound 0.316 µM, first compound 1 µM
[17] = second compound 0.316 µM, first compound 3.16 µM
[18] = second compound 0.316 µM, first compound 10 µM
[19] = second compound 1 µM, first compound 0.0316 µM
[20] = second compound 1 µM, first compound 0.1 µM
[21] = second compound 1 µM, first compound 0.316 µM
[22] = second compound 1 µM, first compound 1 µM
[23] = second compound 1 µM, first compound 3.16 µM
[24] = second compound 1 µM, first compound 10 µM
[25] = second compound 3.16 µM, first compound 0.0316 µM
[26] = second compound 3.16 µM, first compound 0.1 µM
[27] = second compound 3.16 µM, first compound 0.316 µM
[28] = second compound 3.16 µM, first compound 1 µM
[29] = second compound 3.16 µM, first compound 3.16 µM
[30] = second compound 3.16 µM, first compound 10 µM
[31] = second compound 10 µM, first compound 0.0316 µM
[32] = second compound 10 µM, first compound 0.1 µM
[33] = second compound 10 µM, first compound 0.316 µM
[34] = second compound 10 µM, first compound 1 µM
[35] = second compound 10 µM, first compound 3.16 µM
[36] = second compound 10 µM, first compound 10 µM
[37] = second compound 0.0316 µM, first compound 0.00316 µM
[38] = second compound 0.0316 µM, first compound 0.01 µM
[39] = second compound 0.1 µM, first compound 0.00316 µM
[40] = second compound 0.1 µM, first compound 0.01 µM
[41] = second compound 0.316 µM, first compound 0.00316 µM
[42] = second compound 0.316 µM, first compound 0.01 µM
[43] = second compound 1 µM, first compound 0.00316 µM
[44] = second compound 1 µM, first compound 0.01 µM
[45] = second compound 3.16 µM, first compound 0.00316 µM
[46] = second compound 3.16 µM, first compound 0.01 µM
[47] = second compound 10 µM, first compound 0.00316 µM
[48] = second compound 10 µM, first compound 0.01 µM
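Note: spheroids exposed to drugs for seven days before readout.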
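Throughout, for viability, T/C: 100% = DMSO vehicle control wells.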

CC(=O)O[C@H]1C(=O)[C@@]2(C)[C@H]([C@H](OC(=O)c3ccccc3)[C@]3(O)C[C@H](OC(=O)[C@H](O)[C@@H](NC(=O)c4ccccc4)c4ccccc4)C(C)=C1C3(C)C)[C@]1(OC(C)=O)CO[C@@H]1C[C@@H]2O + CNC(=O)c1ccc(Nc2nc(OC3CCCC3)c3c(-c4ccc5nc(C)oc5c4)c[nH]c3n2)c(OC)c1
active: viability, T/C [1] 8.98% | viability, T/C [2] 6.61% | viability, T/C [3] 7.27% | viability, T/C [4] 7.58% | viability, T/C [5] 8.71% | viability, T/C [6] 11.3%
< 0.0316 µM: IC50 (second compound 0.0316 µM) | IC50 (second compound 0.1 µM) | IC50 (second compound 0.316 µM) | IC50 (second compound 1 µM) | IC50 (second compound 3.16 µM) | IC50 (second compound 10 µM)
inactive: viability, T/C [7] 16.5% | viability, T/C [8] 11.2% | viability, T/C [9] 13.8% | viability, T/C [10] 11.9% | viability, T/C [11] 15% | viability, T/C [12] 25.5% | viability, T/C [13] 30.5% | viability, T/C [14] 28.8% | viability, T/C [15] 29.2% | viability, T/C [16] 31.9% | viability, T/C [17] 34.4% | viability, T/C [18] 31.5% | viability, T/C [19] 32% | viability, T/C [20] 25.3% | viability, T/C [21] 28.1% | viability, T/C [22] 35.5% | viability, T/C [23] 36.5% | viability, T/C [24] 27% | viability, T/C [25] 28.6% | viability, T/C [26] 28.3% | viability, T/C [27] 21.7% | viability, T/C [28] 31.7% | viability, T/C [29] 31.8% | viability, T/C [30] 24.2% | viability, T/C [31] 23.4% | viability, T/C [32] 33.6% | viability, T/C [33] 25.5% | viability, T/C [34] 24.9% | viability, T/C [35] 31.4% | viability, T/C [36] 26.3%

CCc1c2c(nc3ccc(O)cc13)-c1cc3c(c(=O)n1C2)COC(=O)[C@]3(O)CC + CNC(=O)c1ccc(Nc2nc(OC3CCCC3)c3c(-c4ccc5nc(C)oc5c4)c[nH]c3n2)c(OC)c1
0.00392 µM: IC50 (second compound 0.0316 µM)
inactive: viability, T/C [37] 58.1% | viability, T/C [38] 14.6% | viability, T/C [39] 31.4% | viability, T/C [40] 13.2% | viability, T/C [41] 18.2% | viability, T/C [42] 11.9% | viability, T/C [43] 17.7% | viability, T/C [44] 10.2% | viability, T/C [45] 17.8% | viability, T/C [46] 12.4% | viability, T/C [47] 13.8% | viability, T/C [48] 11.1%
active: viability, T/C [1] 10.3% | viability, T/C [2] 4.46% | viability, T/C [3] 2.37% | viability, T/C [4] 2.42% | viability, T/C [7] 8.17% | viability, T/C [8] 3.32% | viability, T/C [9] 2.65% | viability, T/C [10] 1.46% | viability, T/C [13] 6.3% | viability, T/C [14] 3.66% | viability, T/C [15] 2.03% | viability, T/C [16] 3.09% | viability, T/C [19] 7.3% | viability, T/C [20] 4.22% | viability, T/C [21] 2.1% | viability, T/C [22] 1.8% | viability, T/C [25] 7.84% | viability, T/C [26] 3.73% | viability, T/C [27] 2.41% | viability, T/C [28] 1.27% | viability, T/C [31] 7.08% | viability, T/C [32] 5.03% | viability, T/C [33] 3.52% | viability, T/C [34] 1.51%
< 0.00316 µM: IC50 (second compound 0.1 µM) | IC50 (second compound 0.316 µM) | IC50 (second compound 1 µM) | IC50 (second compound 3.16 µM) | IC50 (second compound 10 µM)

Cn1ncnc1[C@H]1c2n[nH]c(=O)c3cc(F)cc(c23)N[C@@H]1c1ccc(F)cc1 + CNC(=O)c1ccc(Nc2nc(OC3CCCC3)c3c(-c4ccc5nc(C)oc5c4)c[nH]c3n2)c(OC)c1
> 0.1 µM: IC50 (second compound 0.0316 µM)
0.036 µM: IC50 (second compound 0.1 µM)
< 0.000316 µM: IC50 (second compound 0.316 µM) | IC50 (second compound 1 µM) | IC50 (second compound 3.16 µM) | IC50 (second compound 10 µM)
inactive: viability, T/C (second compound 0.0316 µM, first compound 0.000316 µM) 118% | viability, T/C (second compound 0.0316 µM, first compound 0.001 µM) 102% | viability, T/C [37] 126% | viability, T/C [38] 109% | viability, T/C [1] 102% | viability, T/C [2] 110% | viability, T/C (second compound 0.1 µM, first compound 0.000316 µM) 57.1% | viability, T/C (second compound 0.1 µM, first compound 0.001 µM) 59.4% | viability, T/C [39] 45.4% | viability, T/C [40] 66.2% | viability, T/C [7] 43.5% | viability, T/C [8] 47.3% | viability, T/C (second compound 0.316 µM, first compound 0.000316 µM) 19.1% | viability, T/C (second compound 0.316 µM, first compound 0.001 µM) 22.2% | viability, T/C [41] 20.5% | viability, T/C [42] 24.7% | viability, T/C [13] 24.2% | viability, T/C [14] 21.5% | viability, T/C (second compound 1 µM, first compound 0.000316 µM) 21% | viability, T/C (second compound 1 µM, first compound 0.001 µM) 17.4% | viability, T/C [43] 18% | viability, T/C [44] 18.8% | viability, T/C [19] 18.4% | viability, T/C [20] 18.2% | viability, T/C (second compound 3.16 µM, first compound 0.000316 µM) 17.9% | viability, T/C (second compound 3.16 µM, first compound 0.001 µM) 17.6% | viability, T/C [45] 22.1% | viability, T/C [46] 18.5% | viability, T/C [25] 21.7% | viability, T/C [26] 19.3% | viability, T/C (second compound 10 µM, first compound 0.000316 µM) 20.3% | viability, T/C (second compound 10 µM, first compound 0.001 µM) 21.9% | viability, T/C [47] 19.2% | viability, T/C [48] 22% | viability, T/C [31] 18% | viability, T/C [32] 15.5%

Nc1ccn(C2OC(CO)C(O)C2(F)F)c(=O)n1 (stereo not given) + CNC(=O)c1ccc(Nc2nc(OC3CCCC3)c3c(-c4ccc5nc(C)oc5c4)c[nH]c3n2)c(OC)c1
active: viability, T/C [4] 8.48% | viability, T/C [5] 8.78% | viability, T/C [6] 6.08% | viability, T/C [10] 11.8% | viability, T/C [11] 7.27% | viability, T/C [12] 5.69% | viability, T/C [16] 10.3% | viability, T/C [17] 5.76% | viability, T/C [18] 5.3% | viability, T/C [23] 9.02% | viability, T/C [24] 6.99% | viability, T/C [29] 8.27% | viability, T/C [30] 6.69% | viability, T/C [35] 10.5% | viability, T/C [36] 5.99%
inactive: viability, T/C [1] 26.9% | viability, T/C [2] 13.1% | viability, T/C [3] 13% | viability, T/C [7] 17.3% | viability, T/C [8] 12.1% | viability, T/C [9] 12.5% | viability, T/C [13] 17.4% | viability, T/C [14] 12.8% | viability, T/C [15] 12% | viability, T/C [19] 18.6% | viability, T/C [20] 21.8% | viability, T/C [21] 12.8% | viability, T/C [22] 10.1% | viability, T/C [25] 19.4% | viability, T/C [26] 16.6% | viability, T/C [27] 14.9% | viability, T/C [28] 10.2% | viability, T/C [31] 19.3% | viability, T/C [32] 16.4% | viability, T/C [33] 14.1% | viability, T/C [34] 9.84%
< 0.0316 µM: IC50 (second compound 0.0316 µM) | IC50 (second compound 0.1 µM) | IC50 (second compound 0.316 µM) | IC50 (second compound 1 µM) | IC50 (second compound 3.16 µM) | IC50 (second compound 10 µM)

O=c1[nH]cc(F)c(=O)[nH]1 + CNC(=O)c1ccc(Nc2nc(OC3CCCC3)c3c(-c4ccc5nc(C)oc5c4)c[nH]c3n2)c(OC)c1
9.09 µM: IC50 (second compound 0.0316 µM)
0.527 µM: IC50 (second compound 0.1 µM)
< 0.0316 µM: IC50 (second compound 0.316 µM) | IC50 (second compound 1 µM) | IC50 (second compound 3.16 µM) | IC50 (second compound 10 µM)
inactive: viability, T/C [1] 135% | viability, T/C [2] 119% | viability, T/C [3] 98.4% | viability, T/C [4] 72.3% | viability, T/C [5] 67.5% | viability, T/C [6] 47.9% | viability, T/C [7] 65.5% | viability, T/C [8] 65.7% | viability, T/C [9] 56.4% | viability, T/C [10] 40.3% | viability, T/C [11] 40.8% | viability, T/C [12] 44.9% | viability, T/C [13] 26.4% | viability, T/C [14] 22.8% | viability, T/C [15] 22.1% | viability, T/C [16] 18.4% | viability, T/C [17] 19.7% | viability, T/C [18] 18.9% | viability, T/C [19] 23.3% | viability, T/C [20] 23.9% | viability, T/C [21] 27.6% | viability, T/C [22] 17.3% | viability, T/C [23] 14.5% | viability, T/C [24] 17.9% | viability, T/C [25] 25.1% | viability, T/C [26] 23.8% | viability, T/C [27] 22.1% | viability, T/C [28] 16.3% | viability, T/C [29] 12.7% | viability, T/C [30] 14.7% | viability, T/C [31] 21.5% | viability, T/C [32] 23.3% | viability, T/C [33] 20.2% | viability, T/C [34] 17.9% | viability, T/C [35] 14.7% | viability, T/C [36] 13.6%
